From US20020037931A1, “Substituted nitrated catechols, their use in the treatment of some central and peripheral nervous system disorders and pharmaceutical compositions containing them” (priority 2000, published 2002) come the findings set out here.

Test [1] concerns COMT. The test can be described thus: COMT activity (methylation of adrenaline to metanephrine) in rat liver homogenates. In kind it is biochemical. To be noted: rat liver homogenate; test compound 3 μM; means±SEM, n=4-8.
Test [2] has as its system COMT. Nature of the test: COMT activity (methylation of adrenaline to metanephrine) in rat brain homogenates. Conditions: rat brain homogenate; test compound 100 nM; means±SEM, n=4-8. Format: biochemical.
The target in test [3] is T1, COMT (Homo sapiens, UniProt P21964).
T1 construct: COMT activity was evaluated in cell monolayers by the ability to methylate adrenaline; host or cells: SK-N-SH cells
T1 sequence (P21964 1-271): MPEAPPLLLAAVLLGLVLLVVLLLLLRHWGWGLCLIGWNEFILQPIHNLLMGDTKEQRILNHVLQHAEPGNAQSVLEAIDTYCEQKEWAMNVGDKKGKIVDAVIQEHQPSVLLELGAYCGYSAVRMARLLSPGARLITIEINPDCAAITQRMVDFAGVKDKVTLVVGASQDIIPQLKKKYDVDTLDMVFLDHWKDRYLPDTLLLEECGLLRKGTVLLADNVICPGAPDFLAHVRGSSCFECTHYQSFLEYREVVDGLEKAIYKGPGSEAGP
Nature of the test: COMT activity in intact SK-N-SH cell monolayers. In kind it is cell-based. To be noted: SK-N-SH cells; test compound 100 nM; means±SEM, n=4-8.

As to `O=C1CCCc2cc(O)c(O)c([N+](=O)[O-])c21` [Compound 1, 6,7-Dihydroxy-8-nitro-3,4-dihydro-2H-naphthalen-1-one], the “COMT activity, Liver (% of control)” value with COMT [1] is reported as 1.2 ± 0.2 % of control. Besides, the “COMT activity, Brain (% of control)” value with COMT [2] is reported as 15 ± 4 % of control. In addition, the “COMT activity, SK-N-SH (% of control)” value on COMT [3] is given as 46 ± 1 % of control.
Taken in the same sequence, the figures for `O=C1CCc2cc(O)c(O)c([N+](=O)[O-])c21` [Compound 2, 5,6-Dihydroxy-7-nitro-indan-1-one] were 1.3 ± 0.7 % of control, 9 ± 1 % of control and 24 ± 1 % of control.
For `COc1ccc(C=C2CCc3cc(O)c(O)c([N+](=O)[O-])c3C2=O)cc1OC` [Compound 4, 2-(3,4-Dimethoxy-benzylidene)-6,7-dihydroxy-8-nitro-3,4-dihydro-2H-naphthalen-1-one], in that order: 2.0 ± 1.0 % of control, 20 ± 2 % of control and 25 ± 1 % of control.
`O=[N+]([O-])c1c(O)c(O)cc2c1C(=NO)CC2` [Compound 6, 5,6-Dihydroxy-7-nitro-indan-1-one Oxime]: the “COMT activity, Liver (% of control)” value in the test on COMT [1] is on record as 1.77 ± 0.1 % of control. In addition, the “COMT activity, Brain (% of control)” value in the test with COMT [2] was 33 ± 1 % of control. Besides, the “COMT activity, SK-N-SH (% of control)” value on COMT [3] is 39 ± 3 % of control.
For `COc1ccc(C=C2Cc3cc(O)c(O)c([N+](=O)[O-])c3C2=O)cc1OC` [Compound 7, 2-(3,4-Dimethoxy-benzylidene)-5,6-dihydroxy-7-nitro-indan-1-one], in that order: 0.6 ± 0.3 % of control, 14 ± 1 % of control and 23 ± 1 % of control.
Regarding `CN(C)c1ccc(C=C2Cc3cc(O)c(O)c([N+](=O)[O-])c3C2=O)cc1` [Compound 8, 2-(4-dimethylamino-benzylidene)-5,6-dihydroxy-7-nitro-indan-1-one], in the test on COMT [1], the “COMT activity, Liver (% of control)” value is given as 1.0 ± 0.1 % of control. Also, the “COMT activity, Brain (% of control)” value with COMT [2] is recorded as 30 ± 4 % of control. Moreover, on COMT [3], the “COMT activity, SK-N-SH (% of control)” value is 48 ± 3 % of control.
Taken in the same sequence, the figures for `CN(C)c1ccc(C=C2CCc3cc(O)c(O)c([N+](=O)[O-])c3C2=O)cc1` [Compound 9, 2-(4-Dimethylamino-benzylidene)-6,7-dihydroxy-8-nitro-3,4-dihydro-2H-naphthalen-1-one] were 9.0 ± 1.6 % of control, 47 ± 5 % of control and 8 ± 1 % of control.
`COc1cc(C=C2Cc3cc(O)c(O)c([N+](=O)[O-])c3C2=O)cc([N+](=O)[O-])c1O` [Compound 10, 5,6-Dihydroxy-2-(4-hydroxy-3-methoxy-5-nitro-benzylidene)-7-nitro-indan-1-one]: in the test with COMT [1], the “COMT activity, Liver (% of control)” value is recorded as 0.3 ± 0.1 % of control. Also, the “COMT activity, Brain (% of control)” value in the test on COMT [2] was 14 ± 1 % of control. The “COMT activity, SK-N-SH (% of control)” value on COMT [3] is 24 ± 2 % of control.
On to `COc1cc(C=C2CCc3cc(O)c(O)c([N+](=O)[O-])c3C2=O)cc([N+](=O)[O-])c1O` [Compound 11, 6,7-Dihydroxy-2-(4-hydroxy-3-methoxy-5-nitro-benzylidene)-8-nitro-3,4-dihydro-2H-naphthalen-1-one], for which the “COMT activity, Liver (% of control)” value in the test with COMT [1] was 1.1 ± 0.3 % of control. In the test with COMT [2], the “COMT activity, Brain (% of control)” value was 32 ± 2 % of control. Also, the “COMT activity, SK-N-SH (% of control)” value on COMT [3] was 47 ± 2 % of control.
For `O=C1C(=Cc2ccc(O)c(O)c2)Cc2cc(O)c(O)c([N+](=O)[O-])c21` [Compound 12, 2-(3,4-dihydroxy-benzylidene)-5,6-dihydroxy-7-nitro-indan-1-one], in that order: 0.6 ± 0.0 % of control, 18 ± 1 % of control and 34 ± 1 % of control.
Taken in the same sequence, the figures for `O=C1C(=Cc2ccc(O)c(O)c2)CCc2cc(O)c(O)c([N+](=O)[O-])c21` [Compound 13, 2-(3,4-Dihydroxy-benzylidene)-6,7-dihydroxy-8-nitro-3,4-dihydro-2H-naphthalen-1-one] were 2.3 ± 0.1 % of control, 27 ± 1 % of control and 46 ± 1 % of control.
Taken in the same sequence, the figures for `O=C(CCc1ccccc1)c1ccc(O)c(O)c1[N+](=O)[O-]` [Compound 14, 1-(3,4-Dihydroxy-2-nitro-phenyl)-3-phenyl-propan-1-one] were 0.3 ± 0.0 % of control, 5 ± 1 % of control and 5 ± 2 % of control.
On to `O=C(CCCc1ccccc1)c1ccc(O)c(O)c1[N+](=O)[O-]` [Compound 15, 1-(3,4-dihydroxy-2-nitro-phenyl)4-phenyl-butan-1-one], for which the “COMT activity, Liver (% of control)” value in the test with COMT [1] was 0.5 ± 0.0 % of control. Further, the “COMT activity, Brain (% of control)” value with COMT [2] is reported as 7 ± 2 % of control. Also, at COMT [3], the “COMT activity, SK-N-SH (% of control)” value is 13 ± 4 % of control.
Take `O=C1C(=Cc2cc(O)c(O)c([N+](=O)[O-])c2)Cc2cc(O)c(O)c([N+](=O)[O-])c21` [Compound 16, 2-(3,4-Dihydroxy-5-nitro-benzylidene)-5,6-dihydroxy-7-nitro-indan-1-one]: the “COMT activity, Liver (% of control)” value with COMT [1] is on record as 2.0 ± 0.2 % of control. For the same compound, the “COMT activity, Brain (% of control)” value in the test on COMT [2] was 20 ± 1 % of control. Also, the “COMT activity, SK-N-SH (% of control)” value at COMT [3] is 92 ± 1 % of control.
With `CCCCC(=O)c1ccc(O)c(O)c1[N+](=O)[O-]` [Compound 17, 1-(3,4-dihydroxy-2-nitro-phenyl)-pentan-1-one], the “COMT activity, Liver (% of control)” value with COMT [1] was 0.4 ± 0.0 % of control. The “COMT activity, Brain (% of control)” value in the test with COMT [2] is given as 8 ± 1 % of control. Besides, the “COMT activity, SK-N-SH (% of control)” value on COMT [3] is listed as 24 ± 4 % of control.
For `O=C1c2ccccc2C(=O)c2c1cc(O)c(O)c2[N+](=O)[O-]` [Compound 18, 2,3-Dihydroxy-1-nitro-anthraquinone], in that order: 2.0 ± 0.0 % of control, 17 ± 1 % of control and 70 ± 5 % of control.
For `CCCC(=O)Oc1ccc(C(=O)CCc2ccccc2)c([N+](=O)[O-])c1OC(=O)CCC` [Compound 19, Butyric acid, 6-butyryloxy-2-nitro-3-(3-phenyl-propionyl)-phenyl ester], in that order: 0.2 ± 0.1 % of control, 8 ± 1 % of control and 0 ± 0 % of control.
Taken in the same sequence, the figures for `CCOC(=O)Oc1ccc(C(=O)c2ccccc2)c([N+](=O)[O-])c1OC(=O)OCC` [Compound 21, Carbonic acid, 4-benzoyl-2-ethoxycarbonyloxy-3-nitro-phenyl ester ethyl ester] were 0.3 ± 0.2 % of control, 11 ± 1 % of control and 1 ± 1 % of control.
As for `CC(=O)OC(=Cc1ccccc1)c1ccc(OC(C)=O)c(OC(C)=O)c1[N+](=O)[O-]` [Compound 46, Acetic Acid, 2-Acetoxy4-(I-acetoxy-2-phenyl-vinyl)-3-nitro-phenyl Ester], the “COMT activity, SK-N-SH (% of control)” value at COMT [3] is on record as 1 ± 1 % of control.
